According to patent US20100255580A1, “Differentiation of Human Embryonic Stem Cells” (LIFESCCAN, INC., priority 2007, published 2010):

Tested on: H9 embryonic stem cells
Format: cell-based, human
Experimental: Controls for each group included cells plated on […]-coated dishes and cultured in MEF-conditioned medium or cells plated on MEFs and cultured in ES medium. All groups contained three biological replicates and each biological replicate was repeated on two separate gene chips.
Sample preparation, hybridization, and image analysis were performed according to the Affymetrix Human Genome U133 Plus 2.0 Array. Following normalization and a log transformation, data analysis was performed using OmniViz® software (MA) and […] (VizXLabs, WA). Significant differences in gene expression between the samples were evaluated using analysis of variance and an F-test with adjusted P-value (Benjamini and
Hochberg correction) of ≦b 0.05. Only genes with a present call in at least one group were included in the analysis.

[1] = DE treatment in low serum, on MEFS

Substance: Activin A: a member of the TGFβ superfamily; R&D Systems; Group 2 = Activin A (100 ng/ml)
- mean normalized intensity (log format), gene: Homo sapiens methyl-CpG binding protein MBD2 (MBD2) mRNA, complete cds. [1]: −1.702
- mean normalized intensity (log format), gene: Homo sapiens tachykinin, precursor 1 (TAC1), transcript variant beta, mRNA. [1]: 1.483
- mean normalized intensity (log format), gene: Homo sapiens testis expressed sequence 14 (TEX14), mRNA. [1]: −1.3824
- mean normalized intensity (log format), gene: Homo sapiens, Similar to LIM homeobox protein 8, clone IMAGE: 4839343, mRNA. [1]: −1.11
- mean normalized intensity (log format), gene: Homo sapiens, Similar to cadherin 6, type 2, K-cadherin (fetal kidney), clone MGC: 1470, mRNA, complete cds. [1]: 2.134
- mean normalized intensity (log format), gene: Homo sapiens, Similar to hypothetical protein FLJ10058, clone MGC: 34305 IMAGE: 5167647, mRNA, complete cds. [1]: 0.2156
- mean normalized intensity (log format), gene: Homo sapiens, Similar to hypothetical protein FLJ32001, clone MGC: 39559 IMAGE: 4828136, mRNA, complete cds. [1]: 1.269
- mean normalized intensity (log format), gene: Homo sapiens, clone IMAGE: 4067166, mRNA [1]: 0.277
- mean normalized intensity (log format), gene: Homo sapiens, clone IMAGE: 4828836, mRNA. [1]: −1.484
- mean normalized intensity (log format), gene: Homo sapiens, serine (or cysteine) proteinase inhibitor, clade B (ovalbumin), member 3, clone MGC: 12244, mRNA, complete cds. [1]: −1.566
- mean normalized intensity (log format), gene: Human mRNA upregulated during camptothecin-induced apoptosis of U937 cells. [1]: −0.1892
- mean normalized intensity (log format), gene: Human platelet-derived growth factor alpha-receptor (PDGFRA) mRNA, exons 13-16 [1]: 2.905
- mean normalized intensity (log format), gene: KIAA1151 protein [1]: 1.009
- mean normalized intensity (log format), gene: caldesmon 1 [1]: 5.634
- mean normalized intensity (log format), gene: nuclear receptor subfamily 1, group I, member 3 [1]: −0.1968
- mean normalized intensity (log format), gene: paternally expressed 3 (r2033) [1]: −0.0118
- mean normalized intensity (log format), gene: paternally expressed 3 (r2093) [1]: −3.492
- log intensity, AD036 mRNA (low serum, on MATRIGEL): −0.5033
- log intensity, ADP-ribosylation factor 4-like (ARF4L) (low serum, on MATRIGEL): 1.635
- log intensity, BACE mRNA for beta-site APP cleaving enzyme I-476 (low serum, on MATRIGEL): 0.4855
- log intensity, BTB (POZ) domain containing 2 (BTBD2) (low serum, on MATRIGEL): 1.101
- log intensity, CXCR4 gene encoding receptor CXCR4 (low serum, on MATRIGEL): 3.111
- log intensity, Cluster Incl. AB002344: Human mRNA for KIAA0346 gene (r901) (low serum, on MATRIGEL): 2.157
- log intensity, Cluster Incl. AB002344: Human mRNA for KIAA0346 gene (r941) (low serum, on MATRIGEL): 1.896
- log intensity, Cluster Incl. L37033: Human FK-506 binding protein homologue (FKBP38) (low serum, on MATRIGEL): 0.6156
- log intensity, Cluster Incl. N80935: zb07g06.s1 Homo sapiens cDNA (low serum, on MATRIGEL): 2.124
- log intensity, ESTs (r403) (low serum, on MATRIGEL): 0.7843
- log intensity, ESTs (r404) (low serum, on MATRIGEL): −1.263
- log intensity, ESTs (r405) (low serum, on MATRIGEL): −1.717
- log intensity, ESTs (r442) (low serum, on MATRIGEL): 2.774
- log intensity, ESTs (r453) (low serum, on MATRIGEL): −1.637
- log intensity, ESTs (r473) (low serum, on MATRIGEL): −0.04834
- log intensity, ESTs (r491) (low serum, on MATRIGEL): −1.344
- log intensity, ESTs (r522) (low serum, on MATRIGEL): −0.8015
- log intensity, ESTs (r523) (low serum, on MATRIGEL): −2.576
- log intensity, ESTs (r524) (low serum, on MATRIGEL): 0.4996
- log intensity, ESTs (r556) (low serum, on MATRIGEL): −0.1206
- log intensity, ESTs (r567) (low serum, on MATRIGEL): −2.015
- log intensity, ESTs (r627) (low serum, on MATRIGEL): 2.542
- log intensity, ESTs (r741) (low serum, on MATRIGEL): −0.004009
- log intensity, ESTs (r745) (low serum, on MATRIGEL): 1.386
- log intensity, ESTs (r766) (low serum, on MATRIGEL): 1.047
- log intensity, ESTs (r767) (low serum, on MATRIGEL): −1.485
- log intensity, ESTs (r891) (low serum, on MATRIGEL): −2.079
- log intensity, ESTs (r916) (low serum, on MATRIGEL): −0.1464
- log intensity, ESTs (r938) (low serum, on MATRIGEL): −1.246
- log intensity, ESTs (r980) (low serum, on MATRIGEL): −0.1842
- log intensity, ESTs (r1021) (low serum, on MATRIGEL): −0.4037
- log intensity, ESTs (r1022) (low serum, on MATRIGEL): 2.144
- log intensity, ESTs (r1059) (low serum, on MATRIGEL): 0.7835
- log intensity, ESTs (r1060) (low serum, on MATRIGEL): 1.175
- log intensity, ESTs (r1110) (low serum, on MATRIGEL): 0.533
- log intensity, ESTs (r1115) (low serum, on MATRIGEL): −1.164
- log intensity, ESTs, Highly similar to AF229172 1 class III myosin (low serum, on MATRIGEL): −0.4755
- log intensity, ESTs, Moderately similar to ALU4_HUMAN ALU SUBFAMILY SB2 (low serum, on MATRIGEL): −1.104
- log intensity, ESTs, Moderately similar to JC4969 pig-c protein (low serum, on MATRIGEL): −2.397
- log intensity, ESTs, Moderately similar to NFY-C (low serum, on MATRIGEL): −0.7494
- log intensity, ESTs, Weakly similar to A46302 PTB-associated splicing factor, long form (low serum, on MATRIGEL): 0.8941
- log intensity, ESTs, Weakly similar to ALU8_HUMAN ALU SUBFAMILY SX (low serum, on MATRIGEL): 2.766
- log intensity, ESTs, Weakly similar to ALUC_HUMAN (low serum, on MATRIGEL): 1.08
- log intensity, ESTs, Weakly similar to ALUF_HUMAN (low serum, on MATRIGEL): −1.032
- log intensity, ESTs, Weakly similar to KIAA1330 protein (low serum, on MATRIGEL): −0.9252
- log intensity, ESTs, Weakly similar to KIAA1399 protein (low serum, on MATRIGEL): −0.8312
- log intensity, ESTs, Weakly similar to T32252 hypothetical protein T15B7.2 (low serum, on MATRIGEL): 2.21
- log intensity, ESTs, Weakly similar to Z132_HUMAN ZINC FINGER PROTEIN 13 (low serum, on MATRIGEL): 1.049
- log intensity, F37Esophageal cancer-related gene-coding leucine-zipper motif (FEZ1) (low serum, on MATRIGEL): −0.1288
- log intensity, FLICE-like inhibitory protein short form (low serum, on MATRIGEL): 0.1358
- log intensity, GS1999full mRNA (low serum, on MATRIGEL): 0.137
- log intensity, H1 histone family, member X (H1FX) (low serum, on MATRIGEL): 3.217
